Assay results from US20100266618A1, “COMPOSITIONS AND METHODS FOR AUGMENTING ACTIVITY OF ONCOLYTIC VIRUSES” (priority 2009, published 2010).

What was measured:
[1] = Pharmacokinetic (PK) study, plasma LC-MS; assay type: in vivo; settings: CD-1 nude mice
Protocol: (§1) Maximum tolerable dose (MTD) and pharmacokinetic (PK) studies in mice: For MTD studies, groups of three CD-1 nude mice (6-8 weeks old) were given a single intraperitoneal (IP) injection of Compound 2 (in log 2 increments, diluted in 10% Tween-80) ranging from […]-1000 mg/Kg. The animals were monitored twice daily for signs of distress, including weight loss, morbidity, and respiratory distress. For PK studies, groups of three CD-1 nude mice (6-8 weeks old) were given a single IP injection of Compound 2 (250 mg/Kg), and blood was taken from the saphenous vein at the indicated timepoints. The blood was centrifuged at 3,000 rpm for 10 min, and plasma collected and frozen (−80 deg C.). Plasma samples were analyzed for Compound 2 using LC-MS. To 10 μL plasma, 20 μL acetonitrile was added, vortexed briefly and centrifuged at 14,000 rpm for 10 min. The clear supernatant was transferred in to a vial for LC-MS analysis. Chromatographic separations were carried out on an Acquity UPLC BEH C18 (2.1×50 mm, […]) column using ACQUITY UPLC system. The mobile phase was 0.1% formic acid in water (solvent A) and 0.1% formic acid in acetonitrile (solvent B). A gradient starting at 95% solvent A going to 5% in 4.5 min, holding for 0.5 min, going back to 95% in 0.5 min and equilibrating the column for 1 min was employed. […]

OVCAR-4 xenograft = assay: Ovarian xenograft model, bioluminescent imaging; assay type: in vivo, CD-1 nude mice
Protocol: Ovarian xenograft model: Human ovarian carcinoma-derived OVCAR-4 cells, adapted for bioluminescent imaging, were injected into 6-8 week old athymic CD-1 nude mice (IP injection, 5×10^6 cells per mouse). Untreated animals develop measurable abdominal tumours (assessed by IVIS imaging) by 4-7 days, become icteric by 3-4 months and must be euthanized shortly thereafter due to systemic disease as characterized by enlarged cancerous liver and spleen, pale kidneys, and cancerous lymph nodes on the abdominal mesentery. For efficacy experiments, Compound 2 (250 mg/kg; or vehicle (10% Tween-80)) was administered twice daily (IP injections), beginning on day 14 and ending on day 19. Maraba-DM (1×10^5 pfu per cell) or PBS was injected IV (tail vein) on day 16, 17, 19, 23, 25, 27. Animals were monitored daily for weight loss, morbidity, hind leg paralysis and respiratory distress. Tumour images were captured twice weekly with a Xenogen 200 IVIS system (Caliper LS, USA), and total luminescent flux was analyzed on computerized software (Xenogen).

EMT6 breast cancer line = assay: In vitro cytotoxicity assay with small molecule followed by Maraba virus infection; settings: 50 uM for 48 h prior to Maraba virus infection
Protocol: In vitro cytotoxicity assays with small molecules: Cells were seeded onto 96 well plates to a confluence of ˜50%. The following day, siRNA transfections were performed, or small-molecule IRE1α inhibition was initiated. For the small-molecules, DMSO was used as a vehicle with a [drug]=20-50 μM. Drug treatment occurred for either 4 h (“acute” treatment), or was re-applied at 24 h and left for 48 h total (“chronic” treatment). Following knockdown or chemical inhibition, the cells were infected at log dilutions with the indicated rhabdoviruses. After 48-72 h of infection (depending on the cell line), Resazurin sodium salt was added to a final concentration of 20 μg/ml. After a 6 h incubation the absorbance was read at a wavelength of 573 nm.

[2] = Maximum tolerable dose (MTD) study; assay type: in vivo; settings: single IP injection, CD-1 nude mice
Protocol: as §1

EMT6 tumours = assay: EMT6 syngeneic breast cancer model, bioluminescent imaging and survival; assay type: in vivo, Balb/c mice
Protocol: EMT6 syngeneic breast cancer models: Murine EMT6 breast cancer-derived cells (1×10^5 per mouse) were adapted for bioluminescent imaging and injected into the fat pad of the right lower breast in 6-8 week old Balb/c mice. Mice developed palpable tumours by 5-7 days, which grew rapidly. At 7 days post-tumour implants, mice were treated with Compound 2 (250 mg/kg, IP) or vehicle, twice daily, for six days. Maraba-DM (1×10^7 pfu per cell) or PBS was injected IV (tail vein) on day 10, 11, 13, 16, and 17. Animals were monitored daily for piloerection, weight loss, morbidity, hind leg paralysis and respiratory distress. Tumour images were captured twice weekly using a Xenogen 200 IVIS system (Caliper LS, USA), and total luminescent flux was analyzed on computerized software (Xenogen). Mice were euthanized when the total flux exceeded 1×10^7, which corresponded to a tumour burden of ˜500 mm^3 and occurred between 14-17 days in untreated animals.

U373 and OVCAR8 cells = assay type: cell-based, human

Compound | bio-distribution [1] | half-life ([1]; mouse, plasma, intraperitoneal, 250 mg/Kg) | duration of reduced tumour burden (OVCAR-4 xenograft; combination with Maraba-DM) | tumour burden (OVCAR-4 xenograft; combination with Maraba-DM, Compound 2 250 mg/kg IP twice daily) | tumour growth (OVCAR-4 xenograft; single agent) | sensitization to oncolytic virus killing (EMT6 breast cancer line) | tolerated single dose [2] | tumour burden (EMT6 tumours; combination with Maraba virus, 250 mg/Kg IP twice daily for 6 days) | tumour growth after drug treatment was stopped (EMT6 tumours; combination, virus dosing continued) | tumour growth (EMT6 tumours; single agent) | efficacy (survival) with extended treatment (EMT6 tumours; treatment extended to more than 12 days in combination with virus) | eIF2alpha phosphorylation (U373 and OVCAR8 cells)
COc1cc(-c2cccc(C(N)=O)c2)cc(C=O)c1O [Compound 2, 3′-formyl-4′-hydroxy-5′-methoxy-[1,1′-biphenyl]-3-carboxamide] | efficient bio-distribution to the extravascular tissues | > 6 h | > 30 days | dramatically reduced tumour burden | rapid re-growth occurred after an early period of tumour regression | significantly sensitized to oncolytic virus killing | up to 1000 mg/Kg | significantly reduced tumour burden | tumour re-growth occurred even in the presence of continued virus dosing | neither drug nor virus had an appreciable effect on tumour growth | continued to increase efficacy | 
tunicamycin [reference compound] |  |  |  |  |  |  |  |  |  |  |  | inducing elF2alpha phosphorylation
